Consider 20 compounds from ChEMBL document CHEMBL4376837, “New Dual Small Molecules for Alzheimer's Disease Therapy Combining Histamine H3 Receptor (H3R) Antagonism and Calcium Channels Blockade with Additional Cholinesterase Inhibition” (J Med Chem, 2019).

For data set [1], the system named is SH-SY5Y. The experiment in a line: Neuroprotective activity against okadaic acid-induced cytotoxicity in human SH-SY5Y cells assessed as protection against cell death at 1 uM incubated for 24 hrs by MTT assay relative to control. Type of data set: functional. In general terms: Formazan colour is commonly taken as a measure of viable cells.
Data set [2] addresses Histamine H3 receptor (Homo sapiens, UniProt Q9Y5N1). The experiment in a line: Displacement of [3H]-N-alpha-methylhistamine from human H3 receptor expressed in HEK293 cell membranes incubated for 60 mins by scintillation counting method. On the technique in general: Loss of bound radioactivity is the signal in a displacement assay; it reports binding, not function.
For data set [3], the system named is SH-SY5Y. The experiment in a line: Neuroprotective activity against okadaic acid-induced cytotoxicity in human SH-SY5Y cells assessed as protection against cell death at 3 uM incubated for 24 hrs by MTT assay relative to control. The data set is classed as functional.
The test system of data set [4] is SH-SY5Y. The experiment in a line: Neuroprotective activity against Rotenone/Oligomycin A-induced cytotoxicity in human SH-SY5Y cells assessed as protection against cell death at 0.3 uM incubated for 24 hrs by MTT assay relative to control. The data set is classed as functional.
The target of data set [5] is Cholinesterase (Homo sapiens, UniProt P06276). The experiment in a line: Inhibition of BuChE in human plasma using butyrylthiocholine iodide substrate by Ellman's protocol based assay. The data set is classed as cell-free. (In general: In Ellman's method for cholinesterases, released thiocholine reacts with DTNB.)
Chain of Cholinesterase (P06276 whole entry): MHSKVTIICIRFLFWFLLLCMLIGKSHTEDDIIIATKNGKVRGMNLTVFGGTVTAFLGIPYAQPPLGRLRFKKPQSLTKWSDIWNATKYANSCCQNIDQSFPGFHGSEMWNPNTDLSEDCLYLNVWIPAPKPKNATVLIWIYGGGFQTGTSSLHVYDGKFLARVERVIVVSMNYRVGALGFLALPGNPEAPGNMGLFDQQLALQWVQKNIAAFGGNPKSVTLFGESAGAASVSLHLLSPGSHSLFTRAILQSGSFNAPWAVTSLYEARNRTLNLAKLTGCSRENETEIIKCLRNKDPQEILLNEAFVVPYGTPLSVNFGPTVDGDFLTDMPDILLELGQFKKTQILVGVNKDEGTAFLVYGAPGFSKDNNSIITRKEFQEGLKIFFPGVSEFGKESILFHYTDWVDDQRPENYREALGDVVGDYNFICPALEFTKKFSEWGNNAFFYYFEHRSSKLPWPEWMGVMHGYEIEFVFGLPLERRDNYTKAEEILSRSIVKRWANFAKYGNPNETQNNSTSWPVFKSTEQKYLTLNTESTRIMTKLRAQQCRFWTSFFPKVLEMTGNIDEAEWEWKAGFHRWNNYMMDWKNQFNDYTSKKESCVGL
The test system of data set [6] is SH-SY5Y. The experiment in a line: Neuroprotective activity against Rotenone/Oligomycin A-induced cytotoxicity in human SH-SY5Y cells assessed as protection against cell death at 0.1 uM incubated for 24 hrs by MTT assay relative to control. Type of data set: functional.
The test system of data set [7] is SH-SY5Y. The experiment in a line: Neuroprotective activity against Rotenone/Oligomycin A-induced cytotoxicity in human SH-SY5Y cells assessed as protection against cell death at 3 uM incubated for 24 hrs by MTT assay relative to control. The data set is classed as functional.
For data set [8], the target named is Histamine H1 receptor (Homo sapiens) (UniProt P35367). The experiment in a line: Displacement of [3H]-Pyrilamine from human H1 receptor expressed in CHO-K1 cell membranes incubated for 60 mins by scintillation counting method.
Chain of Histamine H1 receptor (Homo sapiens) (P35367 whole entry): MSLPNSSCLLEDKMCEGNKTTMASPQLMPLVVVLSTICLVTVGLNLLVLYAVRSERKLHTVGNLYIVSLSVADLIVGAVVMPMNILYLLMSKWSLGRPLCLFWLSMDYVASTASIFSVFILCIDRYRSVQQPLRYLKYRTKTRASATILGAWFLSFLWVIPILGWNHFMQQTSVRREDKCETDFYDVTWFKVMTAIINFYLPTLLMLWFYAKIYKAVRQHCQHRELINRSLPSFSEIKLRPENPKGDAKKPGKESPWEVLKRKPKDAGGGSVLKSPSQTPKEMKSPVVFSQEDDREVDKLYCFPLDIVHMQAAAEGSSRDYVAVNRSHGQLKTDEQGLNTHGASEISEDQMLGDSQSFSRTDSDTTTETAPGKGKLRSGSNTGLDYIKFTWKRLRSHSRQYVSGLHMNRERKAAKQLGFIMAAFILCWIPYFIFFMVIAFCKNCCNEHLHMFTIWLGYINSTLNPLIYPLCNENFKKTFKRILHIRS
Data set [9] can be described thus: Permeability at 100 uM by PAMPA method.
Data set [10] concerns SH-SY5Y. The experiment in a line: Neuroprotective activity against Rotenone/Oligomycin A-induced cytotoxicity in human SH-SY5Y cells assessed as protection against cell death at 1 uM incubated for 24 hrs by MTT assay relative to control. Type of data set: functional.
The subject of data set [11] is SH-SY5Y. The experiment in a line: Neuroprotective activity against okadaic acid-induced cytotoxicity in human SH-SY5Y cells assessed as protection against cell death at 0.3 uM incubated for 24 hrs by MTT assay relative to control. Type of data set: functional.
In data set [12] the test system is Mus musculus. The experiment in a line: Neuroprotective activity in mouse model of LPS-induced induced memory impairment assessed as improvement in discrimination index at 10 mg/kg, ip by novel object recognition test. The data set is classed as functional, organism-based.
For data set [13], the target named is Histamine H4 receptor (Homo sapiens, UniProt Q9H3N8). The experiment in a line: Antagonist activity at human H4 receptor expressed in CHO-K1 cells co-expressing G protein alpha16 assessed as inhibition of histamine-induced calcium mobilization incubated for 16 hrs by aequorin-based functional assay. Type of data set: cell-based.
Chain of Histamine H4 receptor (Q9H3N8 whole entry): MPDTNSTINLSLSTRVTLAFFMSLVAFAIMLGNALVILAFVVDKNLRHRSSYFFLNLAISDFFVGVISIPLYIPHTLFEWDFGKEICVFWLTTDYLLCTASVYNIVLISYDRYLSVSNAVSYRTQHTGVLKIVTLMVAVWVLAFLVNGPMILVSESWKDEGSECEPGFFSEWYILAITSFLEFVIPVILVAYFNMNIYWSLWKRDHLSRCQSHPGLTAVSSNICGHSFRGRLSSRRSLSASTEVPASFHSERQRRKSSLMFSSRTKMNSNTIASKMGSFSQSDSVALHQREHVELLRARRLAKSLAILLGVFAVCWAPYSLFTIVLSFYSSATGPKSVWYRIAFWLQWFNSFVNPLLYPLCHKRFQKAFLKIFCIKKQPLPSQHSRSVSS
Data set [14] deals with SH-SY5Y. The experiment in a line: Neuroprotective activity against okadaic acid-induced cytotoxicity in human SH-SY5Y cells assessed as protection against cell death at 0.1 uM incubated for 24 hrs by MTT assay relative to control. The data set is classed as functional.
Data set [15] is described as follows: Inhibition of human recombinant AChE using acetylthiocholine iodide substrate by Ellman's protocol based assay.
A short description of data set [16]: Antioxidant activity assessed as Trolox equivalents incubated for 15 mins by fluorescein based ORAC-FL assay. The data set is classed as functional.
In data set [17] the target is Voltage-gated L-type calcium channel (Homo sapiens, UniProt Q13936+Q13698+Q01668+O60840). The experiment in a line: Inhibition of voltage-dependent L-type calcium channel in 70 mM K+-induced human SH-SY5Y cells assessed as blocking of depolarization-induced Ca2+ uptake by Fluo-4/AM dye based fluorescence microplate reader assay. The data set is classed as cell-based.

The test system of data set [18] is Aorta. The experiment in a line: Vasodilating activity in Wistar rat endothelium-denuded aortic rings preconstricted with 100 mM KCl assessed as vasorelaxation at 1 nM relative to control. On the set-up: scale not given: the % may be the effect or the level left. Particulars: 0.001 µM.
The subject of data set [19] is Aorta. The experiment in a line: Vasodilating activity in Wistar rat endothelium-denuded aortic rings preconstricted with 100 mM KCl assessed as vasorelaxation at 10 nM relative to control. On the set-up: scale not given: the % may be the effect or the level left. Particulars: 0.01 µM.
Data set [20] concerns Aorta. The experiment in a line: Vasodilating activity in Wistar rat endothelium-denuded aortic rings preconstricted with 100 mM KCl assessed as vasorelaxation at 0.1 nM relative to control. On the set-up: scale not given: the % may be the effect or the level left. The following applies: 0.0001 µM.
Data set [21] deals with Mus musculus. The experiment in a line: Neuroprotective activity in mouse model of LPS-induced induced memory impairment assessed as improvement in discrimination index at 1 mg/kg, ip by novel object recognition test. Type of data set: functional, organism-based.

Calls of active or inactive are those of the source. The rule behind the calls is not given here.

Chain of Histamine H3 receptor (Q9Y5N1 whole entry): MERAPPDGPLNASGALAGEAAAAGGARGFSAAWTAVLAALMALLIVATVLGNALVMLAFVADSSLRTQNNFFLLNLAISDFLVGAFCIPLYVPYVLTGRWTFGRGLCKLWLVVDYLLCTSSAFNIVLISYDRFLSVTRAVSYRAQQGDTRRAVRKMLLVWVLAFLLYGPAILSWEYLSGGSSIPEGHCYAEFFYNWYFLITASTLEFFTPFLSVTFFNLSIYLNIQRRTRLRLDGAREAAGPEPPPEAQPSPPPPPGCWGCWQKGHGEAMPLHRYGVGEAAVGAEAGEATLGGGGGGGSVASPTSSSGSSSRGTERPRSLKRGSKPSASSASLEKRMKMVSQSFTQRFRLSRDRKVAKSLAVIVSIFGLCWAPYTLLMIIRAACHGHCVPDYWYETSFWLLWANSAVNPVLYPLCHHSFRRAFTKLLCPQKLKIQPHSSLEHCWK

With `CCOC(=O)C1=C(C)NC(C)=C(C(=O)OCC)C1c1ccc(OCCCCCN2CCCC2)cc1`, the Activity was determined as 18.5% in data set [1]; 16% in data set [3]; 48.9% in data set [4]; 35.5% in [6]; 35.4% in data set [7]; 52.8% in data set [10]. The results for the Activity in data set [11], in data set [14] and in data set [16] were 8.81%, 7.21% and 2.8 equiv, respectively. In [2], this compound displayed a Ki of 425 nM. This compound showed an IC50 in data set [5] of 6070 nM. Besides, the inhibition entry in data set [8], in data set [13] and in data set [15] was “inactive” throughout. The same compound yielded an apparent permeability (Papp) at 100 µM in [9] of 10 ×10⁻⁶ cm/s. In addition, the outcome in [12] was inactive.

The compound `CCOC(=O)C1=C(C)NC(C)=C(C(=O)OCC)C1c1ccc(OCCCCN2CCCCC2)cc1` had an inhibition in data set [2] of 49%. In addition, the inhibition entry in data set [15] is “inactive”. Besides, the Activity in data set [16] worked out at 2.2 equiv.

Turning to `COc1ccc2[nH]cc(CCNC(C)=O)c2c1` [MELATONIN], the results for the Activity in data set [6] and in [14] were 58.2% and 76%, respectively.

`CCOC(=O)C1=C(C)NC(C)=C(C(=O)OCC)C1c1ccc(OCCCN2CCCCC2)c(OCC)c1`: the inhibition constant (Ki) in data set [2] is 1620 nM. Moreover, the inhibition result in [15] is “inactive”. The Activity in [16] was determined as 2.4 equiv.

`CCOC(=O)C1=C(C)NC(C)=C(C(=O)OCC)C1c1ccc(OCCN2CCCCCC2)c(Br)c1` yielded an inhibition in data set [2] of 8%. In addition, the IC50 in data set [17] stood at 1500 nM. In data set [15], the inhibition entry is “inactive”. Further, the Activity in data set [16] stood at 3 equiv.

Regarding `CCOC(=O)C1=C(C)NC(C)=C(C(=O)OCC)C1c1ccc(OCCCCCN2CCCCC2)cc1`, the Activity is recorded as 41.8% in data set [1]; 20.9% in data set [3]; 35.1% in [4]; “Non-Toxic” in data set [18]; 17% in data set [6]; 49.9% in [7]. The Activity in [19] was 5%; in data set [20] it was “Non-Toxic”; in [10], 64.8%; in data set [16], 3.6 equiv. This compound showed an inhibition constant Ki in data set [2] of 565 nM. The IC50 in data set [5] was determined as 7830 nM; in data set [13] it was 1400 nM. The inhibition entry in data set [8] and in [15] was “inactive” in each case. This compound also returned a Papp at 100 µM in [9] of 8.6 ×10⁻⁶ cm/s. Further, the outcome in data set [11] and in [14] was inactive. Moreover, in data set [12], the outcome was Active.

In data set [2], `CCOC(=O)C1=C(C)NC(C)=C(C(=O)OCC)C1c1ccc(OCCN2CCCCC2)c(Br)c1` yielded an inhibition of 37%. In addition, in [17], the IC50 came out at 2800 nM. Further, in data set [15], the inhibition entry is “inactive”. Besides, the Activity in data set [16] was 2.2 equiv.

In [2], `CCOC(=O)C1=C(C)NC(C)=C(C(=O)OCC)C1c1ccc(OCCN2CCCCC2)cc1` displayed an inhibition of 18%. Moreover, the inhibition entry in data set [15] is “inactive”. Also, the Activity in data set [16] amounted to 2.4 equiv.

In turn, `CCOC(=O)C1=C(C)NC(C)=C(C(=O)OCC)C1c1ccc(OCCCN2CCCCC2)c(OC)c1` had an inhibition in data set [2] of 20%. For the same compound, in data set [15], the inhibition entry was “inactive”. In addition, in [16], the Activity is 2.3 equiv.

Compound `CCOC(=O)C1=C(C)NC(C)=C(C(=O)OCC)C1c1ccc(OCCCN2CCCC2)c(OCC)c1` came in with an inhibition in data set [2] of 19%. Further, the inhibition entry in data set [15] is “inactive”. In addition, the Activity in data set [16] was found to be 2.8 equiv.

`CCOC(=O)C1=C(C)NC(C)=C(C(=O)OCC)C1c1ccc(OCCCN2CCCC2)c(OC)c1` yielded an inhibition in data set [2] of 23%. For the same compound, the inhibition result in data set [15] was “inactive”. The Activity in data set [16] came to 2.3 equiv.

Turning to `CCOC(=O)C1=C(C)NC(C)=C(C(=O)OCC)C1c1ccc(OCCN2CCCCCC2)c(Cl)c1`, in data set [2], the inhibition came out at 19%. The IC50 in data set [17] turned out to be 4000 nM. Further, the inhibition result in [15] was “inactive”. The Activity in data set [16] was determined as 2.4 equiv.

On to `CCOC(=O)C1=C(C)NC(C)=C(C(=O)OCC)C1c1ccc(OCCCCN2CCCC2)cc1`, for which, in [2], the Ki is 60 nM. Also, the IC50 in data set [5] is 7220 nM. Also, in data set [15], the inhibition result is “inactive”. Further, in data set [16], the Activity came out at 3.3 equiv.

For the compound `COC(=O)C1=C(C)NC(C)=C(C(=O)OC)C1c1ccccc1[N+](=O)[O-]` [NIFEDIPINE], the Activity came out at 37% in [18] (Aorta), 81% in [19] (Aorta) and 12% in data set [20] (Aorta).

In turn, `CCOC(=O)C1=C(C)NC(C)=C(C(=O)OCC)C1c1ccc(OCCN2CCCCC2)c(Cl)c1` registered an inhibition in [2] of 17%. The IC50 in [17] worked out at 2900 nM. Moreover, the inhibition result in data set [15] is “inactive”. For the same compound, the Activity in data set [16] was 2.5 equiv.

As to `CCOC(=O)C1=C(C)NC(C)=C(C(=O)OCC)C1c1ccc(OCCCN2CCCCC2)cc1`, the Ki in data set [2] was 40 nM. The inhibition result in [15] was “inactive”. The Activity in data set [16] worked out at 2.3 equiv.

On to `CCOC(=O)C1=C(C)NC(C)=C(C(=O)OCC)C1c1ccc(OCCCN2CCCC2)cc1`, for which the inhibition constant (Ki) in data set [2] worked out at 83 nM. For the same compound, the inhibition entry in data set [15] was “inactive”. In addition, the Activity in data set [16] amounted to 3.5 equiv.

As to `COc1cc2c(cc1OC)C(=O)C(CC1CCN(Cc3ccccc3)CC1)C2` (stereo not given), the outcome in data set [21] was Active.

As to `COc1cc(/C=C/C(=O)O)ccc1O`, the Activity in [16] was 3.7 equiv.

`CCOC(=O)C1=C(C)NC(C)=C(C(=O)OCC)C1c1ccc(OCCN2CCCCC2)c(OC)c1` had an inhibition in data set [2] of under 5%. The IC50 in data set [17] was found to be 26000 nM. For the same compound, in data set [15], the inhibition result is “inactive”. Besides, in [16], the Activity amounted to 3.9 equiv.

In general, Ki refers to the dissociation constant of the complex between target and ligand, obtained from inhibition or displacement. What is called IC50 is the concentration needed to halve the response being measured. The inhibition is the percentage by which the read-out fell short of the control. One may read the Papp as the rate of passage across a membrane or cell layer, normalised by area and donor concentration.
